pEC50: −log10 of the molar value. Entries after “also recorded” stand apart in the source; their conditions may differ.
Tests used:
Assay type in all cases: cell-based
HL-60 cells [1] = test: Mobilization of intracellular Ca2+ after pertussis toxin pretreatment; conditions: pretreatment 20 hrs with 100 ng/ml pertussis toxin
Experimental: Increases in [Ca^2+ ]i arising from the mobilization of intracellular Ca^2+ were inhibited by pretreatment for 20 hrs with 100 ng/ml pertussis toxin (PTx).

HL-60 cells [2] = test system: HL-60 cells
Experimental: Uke the effect of many other pore formers, the effects of these peptides on EB uptake were augmented when the total extracellular divalent cation concentration was reduced to 0.1 mM and inhibited when extracellular Mg^2+ was increased from 1 to 5 mM.
The ability of Geolycosa 17 to form pores in membranes was tested in T3 fibroblasts, parathyroid cells, and differentiated and undifferentiated HL60 cells. Pore formation was assessed by measuring the permeability of the cells to ethidium bromide (EB, MW 394). Concentrations of Geolycosa 17 greater than 7.5 μM increased EB uptake in all cells tested.

[3] = test system: HL-60 cells differentiated with dibutryl cAMP; test: Mobilization of intracellular Ca2+ in fura-2 loaded differentiated HL-60 cells; conditions: differentiated HL-60 cells loaded with fura-2
Experimental: The three peptides of the present invention isolated from the venom of the spider Geolycosa riogrande, designated Geolycosa 17, 15a and 15b, contain linear sequences of 25 (Geolycosa 17) or 27 (Geolycosa 15a and 15b) amino acids, lack cysteine, and are enriched in lysine. […] When tested at concentrations of 0.5 to 2 μM, all three peptides caused rapid and transient increases in [Ca^2+ ]i that persisted in the absence of extracellular Ca^2+ but were blocked when cellular stores of Ca^2+ were depleted by pretreatment with ionomycin.

Compound | effect of PTx pretreatment on mobilization of intracellular Ca2+ (HL-60 cells [1]) | EB uptake / pore formation at concentrations effective in mobilizing intracellular Ca2+ (HL-60 cells [2]) | permeabilization of cells indexed by uptake of ethidium bromide (EB) (HL-60 cells [2]) | rank order of potency for causing permeabilization of HL-60 cells (HL-60 cells [2]) | pEC50 (HL-60 cells [2]; EB uptake, read-out: EC50 for causing pore formation) | mobilization of intracellular Ca2+ [3] | potency relative to mastoparan (HL-60 cells [2]) | effect of PTx on pore formation (HL-60 cells [2]; pertussis toxin pretreatment) | EB uptake at slightly higher concentrations than those mobilizing Ca2+ (HL-60 cells [2]) | potency relative to Geolycosa 15a and Geolycosa 17 (HL-60 cells [2])
Nc1ncnc2c1ncn2[C@@H]1O[C@H](COP(=O)(O)OP(=O)(O)OP(=O)(O)O)[C@@H](O)[C@H]1O [ATP, reference compound] | blocked | – | – | – | – | – | – | – | – | –
CC[C@H](C)[C@H](NC(=O)CN)C(=O)NCC(=O)N[C@@H](C)C(=O)N[C@H](C(=O)N[C@@H](CC(C)C)C(=O)N[C@@H](CCCCN)C(=O)N[C@H](C(=O)N[C@@H](CC(C)C)C(=O)N[C@H](C(=O)N[C@H](C(=O)NCC(=O)N[C@@H](CC(C)C)C(=O)N1CCC[C@H]1C(=O)N[C@@H](C)C(=O)N[C@@H](CC(C)C)C(=O)N[C@H](C(=O)N[C@@H](CO)C(=O)N[C@@H](Cc1c[nH]c2ccccc12)C(=O)N[C@H](C(=O)N[C@@H](CCCCN)C(=O)N[C@@H](CCCNC(=N)N)C(=O)N[C@@H](CCCCN)C(=O)N[C@@H](CCCNC(=N)N)C(=O)N[C@@H](CCC(N)=O)C(=O)N[C@@H](CCC(N)=O)C(N)=O)[C@@H](C)CC)[C@@H](C)CC)[C@@H](C)O)[C@@H](C)O)C(C)C)C(C)C [melittin, reference compound] | – | caused significant pore formation | permeabilized HL-60 cells | melittin>Geolycosa 15b>Geolycosa 17=Geolycosa 15a>mastoparan | ~6.60 | caused the mobilization of intracellular Ca^2+ | – | – | – | –
Geolycosa 15a (KIKWLKAMKSIAKFIAKKQMKKHLGGE) | blocks | even less prone to cause increases in EB uptake | permeabilized cells | melittin>Geolycosa 15b>Geolycosa 17=Geolycosa 15a>mastoparan | – | mobilize intracellular Ca^2+ | about twice as potent | without effect | – | –
Geolycosa 15b (KIKWFKTMKSIAKFIAKEQMKKHLKGE) | failed to affect | little uptake of EB | permeabilized cells | melittin>Geolycosa 15b>Geolycosa 17=Geolycosa 15a>mastoparan | – | mobilize intracellular Ca^2+; also recorded: caused the mobilization of intracellular Ca^2+ | – | – | a large uptake of EB | about twice as potent
